Experimental data as given in patent publication US9447083B2, “N-acylhydrazone derivatives for selective T cell inhibitor and anti-lymphoid malignancy drug” (CHONG KUN DANG PHARMACEUTICAL CORP., priority 2012, dated 2016).

system: Jurkat T cells; assay: Pro-apoptotic activity on Jurkat T cells (FITC-Annexin V / 7-AAD flow cytometry); assay type: cell-based; conditions: Homo sapiens, 72 hours, cells stained with FITC-Annexin V and 7-AAD among total cells, read-out: Cell Apoptosis Effect to Jurkat T Cell (% in 5 μM)
Experimental: In order to investigate the effects of the prepared compounds, the apoptosis-inducing effects of the compounds on human T cell acute lymphoblastic leukemia cell line, Jurkat T cells, were evaluated in the following manner.
Jurkat T cells cultured in RPMI medium containing 10% fetal bovine serum (FBS) were collected and stained with trypan blue (Sigma). […] Then, the cells were centrifuged at 1200 rpm at room temperature for 5 minutes and re-suspended in 10% FBS-containing RPMI medium at a concentration of 1.5×10^5 cells/mL. 200 μL of the cell suspension was dispensed into each well of a flat bottom 96-well plate (Costar). Then, the cells were treated with 10 μL of the diluted compounds in RPMI medium at final concentrations of […] or 5 μM, and incubated in a 5% CO2 incubator at 37° C. for 72 hours. In a vehicle control group, the cells were treated with 10 μL of RPMI medium containing 1% of dimetylsulfoxide (DMSO, Sigma). The incubated cells were harvested, put into 5-mL FACS tubes (BD Falcon), washed with 1 mL of phosphate buffered saline (PBS), and then re-suspended in 0.1 mL of binding buffer (10 mM Hepes-NaOH, pH 7.4, 140 mM NaCl, […] CaCl2). The suspended cells were stained with fluorescein isothiocyanate (FITC)-Annexin V (BD Biosciences) and 7-amino-actinomycin D (7-AAD, e-Biosciences) at room temperature for 15 minutes. The stained cells were suspended in 0.3 mL of binding buffer and analyzed by a flow cytometer. Apoptosis was determined by the ratio (%) of cells stained with FITC-Annexin V and 7-AAD among the total cells (see Tables 10 and 11).

Structure (SMILES) | cytotoxicity at 5 µM
Cc1cccc(C)c1OCC(=O)N/N=C/c1ccc2cc[nH]c2c1 [Compound 258, (E)-N′-((1H-indol-6-yl)methylene)-2-(2,6-dimethylphenoxy)acetohydrazide] | 100%

same assay, conditions: Homo sapiens, 72 hours, cells stained with FITC-Annexin V and 7-AAD among total cells, read-out: Jurkat T Cell Apoptosis (% in 5 μM)

Structure (SMILES) | cytotoxicity at 5 µM
Cc1cc(C)c(OCC(=O)N/N=C/c2cccc3[nH]ccc23)c(Br)c1 [Compound 259, (E)-N′-((1H-indol-4-yl)methylene)-2-(2-bromo-4,6-dimethylphenoxy)acetohydrazide] | 100%
Cc1cc(C)c(OCC(=O)N/N=C/c2ccc3cc[nH]c3c2)c(Br)c1 [Compound 260, (E)-N′-((1H-indol-6-yl)methylene)-2-(2-bromo-4,6-dimethylphenoxy)acetohydrazide] | 100%
Cc1cc(C)c(OCC(=O)N(COC(=O)c2ccc(CN3CCOCC3)cc2)/N=C/c2ccc3cc[nH]c3c2)c(C)c1 [Compound 272, (E)-(2-((1H-indol-6-yl)methylene)-1-(2-(mesityloxy)acetyl)hydrazinyl)methyl 4-(morpholinomethyl)benzoate] | 100%
Cc1ccccc1OCC(=O)N/N=C/c1ccc2cc[nH]c2c1 [Compound 279] | 100%
Cc1cc(C)c(OCC(=O)N/N=C/c2cccc3c2ccn3S(=O)(=O)c2ccccc2)c(C)c1 [Compound 280, (E)-2-(mesityloxy)-N′-((1-(phenylsulfonyl)-1H-indol-4-yl)methylene)acetohydrazide] | 100%
Cc1cc(OCC(=O)N/N=C/c2cccc3[nH]ccc23)cc(C)n1 [Compound 286, (E)-N′-((1H-indol-4-yl)methylene)-2-(2,6-dimethylpyridin-4-yloxy)acetohydrazide] | 100%
Cc1cc(OCC(=O)N/N=C/c2ccc3cc[nH]c3c2)cc(C)n1 [Compound 288] | 90%
Cc1ncccc1OCC(=O)N(CO)/N=C/c1cccc2[nH]ccc12 [Compound 289] | 100%
Cc1cc(F)ccc1OCC(=O)N/N=C/c1ccc2cc[nH]c2c1 [Compound 291, (E)-N′-((1H-indol-6-yl)methylene)-2-(4-fluoro-2-methylphenoxy)acetohydrazide] | 100%
CCc1nc(C)ccc1OCC(=O)N/N=C/c1ccc2cc[nH]c2c1 [Compound 293, (E)-N′-((1H-indol-6-yl)methylene)-2-(2-ethyl-6-methylpyridin-3-yloxy)acetohydrazide] | 100%
Cc1cc(OCC(=O)N/N=C/c2cccc3[nH]ccc23)nc(C)n1 [Compound 301, (E)-N′-((1H-indol-4-yl)methylene)-2-(2,6-dimethylpyrimidin-4-yloxy)acetohydrazide] | 100%
COc1ccc(OCC(=O)N/N=C/c2cccc3[nH]ccc23)c(C(C)(C)C)c1 [Compound 302, (E)-N′-((1H-indol-4-yl)methylene)-2-(2-tert-butyl-4-methoxyphenoxy)acetohydrazide] | 100%
COc1ccc(OCC(=O)N/N=C/c2ccc3cc[nH]c3c2)c(C(C)(C)C)c1 [Compound 303] | 100%
Cc1ncccc1OCC(=O)N/N=C/c1ccc2cc[nH]c2c1 [Compound 304, (E)-N′-((1H-indol-6-yl)methylene)-2-((2-methylpyridin-3-yl)oxy)acetohydrazide] | 90%
O=C(COc1cccnc1-c1ccoc1)N/N=C/c1ccc2cc[nH]c2c1 [Compound 310, (E)-N′-((1H-indol-6-yl)methylene)-2-(2-(furan-3-yl)pyridin-3-yloxy)acetohydrazide] | 100%
Cc1cccc(C2CCOC2)c1OCC(=O)N/N=C/c1ccc2cc[nH]c2c1 (centres unmarked) [Compound 311, (E)-N′-((1H-indol-6-yl)methylene)-2-(2-methyl-6-(tetrahydrofuran-3-yl)phenoxy)acetohydrazide] | 100%
Cc1cccc(C2CCOC2)c1OCC(=O)N/N=C/c1cccc2[nH]ccc12 (centres unmarked) [Compound 312, (E)-N′-((1H-indol-4-yl)methylene)-2-(2-methyl-6-(tetrahydrofuran-3-yl)phenoxy)acetohydrazide] | 100%
Cc1cccc(-c2ccoc2)c1OCC(=O)N/N=C/c1ccc2cc[nH]c2c1 [Compound 313, (E)-N′-((1H-indol-6-yl)methylene)-2-(2-(furan-3-yl)-6-methylphenoxy)acetohydrazide] | 100%
Cc1cccc(-c2ccoc2)c1OCC(=O)N/N=C/c1cccc2[nH]ccc12 [Compound 314, (E)-N′-((1H-indol-4-yl)methylene)-2-(2-(furan-3-yl)-6-methylphenoxy)acetohydrazide] | 100%

Structure (SMILES) | cytotoxicity at 5 µM
Cc1cc(C)c(OCC(=O)N/N=C/c2cccc3[nH]ccc23)c(-c2ccco2)c1 [Compound 317, (E)-N′-((1H-indol-4-yl)methylene)-2-(2-(furan-2-yl)-4,6-dimethylphenoxy)acetohydrazide] | 100%
Cc1cc(C)c(OCC(=O)N/N=C/c2ccc3cc[nH]c3c2)c(-c2ccco2)c1 [Compound 318] | 100%
O=C(COc1cccnc1-c1ccoc1)N/N=C/c1cccc2[nH]ccc12 [Compound 319, (E)-N′-((1H-indol-4-yl)methylene)-2-((2-(furan-3-yl)pyridin-3-yl)oxy)acetohydrazide] | 100%
Cc1cc(C)c(OCC(=O)N/N=C/c2cccc3[nH]ccc23)c(C2CCOC2)c1 (centres unmarked) [Compound 320, (E)-N′-((1H-indol-4-yl)methylene)-2-(2,4-dimethyl-6-(tetrahydrofuran-3-yl)phenoxy)acetohydrazide] | 100%
Cc1cc(-c2ccoc2)cc(C)c1OCC(=O)N/N=C/c1ccc2cc[nH]c2c1 [Compound 322, (E)-N′-((1H-indol-6-yl)methylene)-2-(4-(furan-3-yl)-2,6-dimethylphenoxy)acetohydrazide] | 100%
Cc1cc(C2CCOC2)cc(C)c1OCC(=O)N/N=C/c1ccc2cc[nH]c2c1 (centres unmarked) [Compound 323, (E)-N′-((1H-indol-6-yl)methylene)-2-(2,6-dimethyl-4-(tetrahydrofuran-3-yl)phenoxy)acetohydrazide] | 100%
Cc1cccc(OCC(=O)N/N=C/c2cccc3[nH]ccc23)c1C [Compound 326, (E)-N′-((1H-indol-4-yl)methylene)-2-(2,3-dimethylphenoxy)acetohydrazide] | 95%
Cc1cccc(OCC(=O)N/N=C/c2ccc3cc[nH]c3c2)c1C [Compound 327] | 95%
CCc1nc(C)ccc1OCC(=O)N/N=C/c1cccc2[nH]ccc12 [Compound 329, (E)-N′-((1H-indol-4-yl)methylene)-2-((2-ethyl-6-methylpyridin-3-yl)oxy)acetohydrazide] | 100%
N#Cc1cc(Br)ccc1OCC(=O)N/N=C/c1cccc2[nH]ccc12 [Compound 330, (E)-N′-((1H-indol-4-yl)methylene)-2-(4-bromo-2-cyanophenoxy)acetohydrazide] | 80%
O=C(COc1cccnc1N1CCCC1)N/N=C/c1ccc2cc[nH]c2c1 [Compound 331, (E)-N′-((1H-indol-6-yl)methylene)-2-((2-(pyrrolidin-1-yl)pyridin-3-yl)oxy)acetohydrazide] | 100%
Cc1cc(C)c(OCC(=O)N/N=C/c2ccc3cc[nH]c3c2)c(C2CCCO2)c1 (centres unmarked) [Compound 332, (E)-N′-((1H-indol-6-yl)methylene)-2-(2,4-dimethyl-6-(tetrahydrofuran-2-yl)phenoxy)acetohydrazide] | 100%
Cc1cc(C)c(OCC(=O)N/N=C/c2cccc3[nH]ccc23)c(-c2ccoc2)c1 [Compound 333, (E)-N′-((1H-indol-4-yl)methylene)-2-(2-(furan-3-yl)-4,6-dimethylphenoxy)acetohydrazide] | 100%
Cc1cc(-c2ccoc2)cc(C)c1OCC(=O)N/N=C/c1cccc2[nH]ccc12 [Compound 336, (E)-N′-((1H-indol-4-yl)methylene)-2-(4-(furan-3-yl)-2,6-dimethylphenoxy)acetohydrazide] | 100%
Cc1cc(C2CCOC2)cc(C)c1OCC(=O)N/N=C/c1cccc2[nH]ccc12 (centres unmarked) [Compound 337, (E)-N′-((1H-indol-4-yl)methylene)-2-(2,6-dimethyl-4-(tetrahydrofuran-3-yl)phenoxy)acetohydrazide] | 100%
O=C(COc1cccnc1-c1ccsc1)N/N=C/c1ccc2cc[nH]c2c1 [Compound 343, (E)-N′-((1H-indol-6-yl)methylene)-2-((2-(thiophen-3-yl)pyridin-3-yl)oxy)acetohydrazide] | 100%
Cc1cc(C)c(OCC(=O)N/N=C/c2cccc3[nH]ccc23)c(-c2cccs2)c1 [Compound 344, (E)-N′-((1H-indol-4-yl)methylene)-2-(2,4-dimethyl-6-(thiophen-2-yl)phenoxy)acetohydrazide] | 100%
Cc1cc(C)c(OCC(=O)N/N=C/c2ccc3cc[nH]c3c2)c(-c2cccs2)c1 [Compound 345] | 95%
